The source of these data is ChEMBL document CHEMBL1201862, “PubChem BioAssay data set” (2004).

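48-hour exposure; five concentrations; linearly interpolated endpoints. At the GI50, growth is halved.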 Activity calls are given as the source filed them. No stated cut-off is given here; in the data, active = GI50 up to about 1.1 µM and inactive = higher. *1 amine or outer side, *2 acyl side, *3 side chain or, on linkers, in order; H or OH if unused. Where a SMILES comes first, the peptide text is derived from it. Bridges are numbered along the chain shown (N, C = ends). Roman numbers before positions name the chains, in order. [ ]: non-standard residue; d: D form. Actinocin(1to9) = Cc1c2oc3c(C)ccc(C(=O)[*:2])c3nc-2c(C(=O)[*:1])c(N)c1=O; NMeV = CN[CH](C(=O)O)C(C)C; Sar = CNCC(=O)O A value given as a limit tells only on which side of the number the result lay.

Among the test systems are 786-0; CAKI-1; HCT-15; LOX IMVI; MDA-MB-231; MDA-N; MOLT-4; Malme-3M; NCI-H23; NCI-H460; RXF 393; SF-268; SF-539; SK-MEL-5; SN12C; SNB-75; TK-10; U-251; UACC-62; UO-31.
Holding throughout (assay): NCI tumour cell line growth inhibition, 48 h

In the case of `O=C(Nc1nn(C(=O)c2cccnc2)c(=O)s1)c1ccc(Cl)cc1`, the GI50 with 786-0 is > 100 µM (inactive); with CAKI-1, 40.6 µM (inactive); in the assay with HCT-15, 80.4 µM; in the assay on LOX IMVI it was > 100 µM (inactive); in the assay on MDA-MB-231, > 100 µM (inactive); with MDA-N, > 100 µM (inactive). Moreover, the GI50 was 28.1 µM (inactive) in the assay with MOLT-4; 31.6 µM (inactive) in the assay on Malme-3M; > 100 µM (inactive) in the assay with NCI-H23; > 100 µM (inactive) in the assay with NCI-H460; 15.6 µM (inactive) in the assay on RXF 393; 20.7 µM (inactive) with SF-268. Moreover, the GI50 is 29.4 µM (inactive) in the assay on SF-539; 31.4 µM (inactive) with SK-MEL-5; > 100 µM (inactive) in the assay on SN12C; 29.4 µM (inactive) in the assay on SNB-75; 76.6 µM (inactive) with TK-10; 74 µM (inactive) in the assay on U-251. The GI50 was > 100 µM (inactive) in the assay on UACC-62 and 1.8 µM (inactive) in the assay with UO-31.
As for `C/C(=N/NC(=S)N1CCN(C(=S)N/N=C(/C)c2ccccn2)CC1)c1ccccn1`, the GI50 was 6.87 µM (inactive) in the assay with 786-0; 6.56 µM (inactive) with CAKI-1; 2.15 µM with HCT-15; 5.94 µM (inactive) in the assay on LOX IMVI; 45.2 µM (inactive) in the assay with MDA-MB-231; > 77.8 µM (inactive) with MDA-N. The GI50 in the assay on MOLT-4 is 4.79 µM (inactive); in the assay with Malme-3M it was 4.6 µM (inactive); with NCI-H23, 10.1 µM (inactive); in the assay on NCI-H460, 2.99 µM (inactive); with RXF 393 it was 3.52 µM (inactive); with SF-268 it was 3.03 µM (inactive). Also, the GI50 in the assay with SF-539 was 6.4 µM (inactive); with SK-MEL-5, 6.97 µM (inactive); in the assay with SN12C, 8.65 µM (inactive); in the assay on SNB-75 it was 15.1 µM (inactive); with TK-10, 4.84 µM (inactive); with U-251, 8.89 µM (inactive). Besides, the values for the GI50 in the assay on UACC-62 and in the assay with UO-31 were 6.71 µM (inactive) and 2.69 µM (inactive), respectively.
Regarding `CCC(C)C1NC(=O)C(NC(=O)c2c3nc4c(C(=O)NC5C(=O)NC(C(C)C)C(=O)N6CCCC6C(=O)N(C)CC(=O)N(C)C(C(C)C)C(=O)OC5C)ccc(C)c4oc-3c(C)c(=O)c2N)C(C)OC(=O)C(C(C)C)N(C)C(=O)CN(C)C(=O)C2CCCN2C1=O` (centres undefined) (I: TIP[Sar][NMeV] / II: TVP[Sar][NMeV]; ester I:1-I:C, II:1-II:C; linker I:N-II:N via Actinocin(1to9); configuration not given here), the GI50 with 786-0 was 0.00042 µM (active); in the assay with CAKI-1, 0.00378 µM (active); in the assay on HCT-15, 0.0807 µM; in the assay with LOX IMVI, < 0.0001 µM (active); in the assay with MDA-MB-231, 0.000173 µM (active); in the assay with MDA-N, 0.000135 µM (active). The GI50 in the assay on MOLT-4 is < 0.0001 µM (active); in the assay on Malme-3M, 0.000689 µM (active); with NCI-H23 it was 0.000697 µM (active); with NCI-H460, < 0.0001 µM (active); in the assay with RXF 393, 0.01 µM (active); with SF-268, 0.000916 µM (active). For the same compound, the GI50 was 0.00165 µM (active) with SF-539; < 0.0001 µM (active) with SK-MEL-5; 0.000388 µM (active) with SN12C; 0.00762 µM (active) in the assay on SNB-75; 0.0137 µM (active) in the assay on TK-10; < 0.0001 µM (active) with U-251. In addition, the GI50 is 0.00589 µM (active) in the assay on UACC-62 and 0.0787 µM (active) in the assay with UO-31.
On to `CC(C)OP(=O)(OC(C)C)C(C(C)C)N(C)/C(F)=N/C(F)(F)F` (centres undefined), for which the GI50 in the assay on 786-0 was > 100 µM (inactive); in the assay on CAKI-1, > 100 µM (inactive); with HCT-15 it was greater than 100 µM; in the assay with LOX IMVI, > 100 µM (inactive); in the assay on MDA-MB-231, > 100 µM (inactive); with MDA-N it was > 100 µM (inactive). The GI50 in the assay on MOLT-4 is 75.7 µM (inactive); in the assay with Malme-3M, > 100 µM (inactive); with NCI-H23, > 100 µM (inactive); in the assay on NCI-H460 it was > 100 µM (inactive); with RXF 393 it was > 100 µM (inactive); in the assay with SF-268 it was > 100 µM (inactive). Moreover, the GI50 in the assay with SF-539, in the assay on SK-MEL-5, in the assay with SN12C, in the assay with SNB-75, with TK-10 and in the assay on U-251 was > 100 µM (inactive) in each case. For the same compound, the GI50 in the assay on UACC-62 and with UO-31 was > 100 µM (inactive) each time.
`Cc1ccc(/N=C2\OP(=O)(Nc3ccc(C)cc3)Oc3ccccc32)cc1` (centres undefined): the GI50 with 786-0 was > 100 µM (inactive); with CAKI-1, > 100 µM (inactive); in the assay on HCT-15, greater than 100 µM; in the assay on LOX IMVI, > 100 µM (inactive); in the assay with MDA-MB-231 it was > 100 µM (inactive); in the assay on MDA-N, > 100 µM (inactive). For the same compound, the GI50 in the assay with MOLT-4 was > 100 µM (inactive); in the assay with Malme-3M, > 100 µM (inactive); in the assay on NCI-H23, > 100 µM (inactive); with NCI-H460, > 100 µM (inactive); in the assay on RXF 393 it was 81.5 µM (inactive); in the assay on SF-268, > 100 µM (inactive). The GI50 in the assay with SF-539 was > 100 µM (inactive); in the assay with SK-MEL-5 it was 73.1 µM (inactive); in the assay with SN12C, > 100 µM (inactive); in the assay with SNB-75, 36.4 µM (inactive); in the assay with TK-10, > 100 µM (inactive); in the assay with U-251 it was > 100 µM (inactive). Further, the GI50 in the assay on UACC-62 was > 100 µM (inactive); in the assay with UO-31, 97.7 µM (inactive).
Take `O=C(O)c1cc2ccc3ccccc3c2oc1=O`: the GI50 is > 100 µM (inactive) in the assay on 786-0; > 10 µM (inactive) with CAKI-1; greater than 100 µM in the assay on HCT-15; > 100 µM (inactive) in the assay on LOX IMVI; > 100 µM (inactive) in the assay on MDA-MB-231; > 100 µM (inactive) with MDA-N. For the same compound, the GI50 with MOLT-4, in the assay with Malme-3M, in the assay with NCI-H23, in the assay on NCI-H460, with RXF 393 and in the assay with SF-268 was > 100 µM (inactive) throughout. The GI50 in the assay on SF-539, with SK-MEL-5, with SN12C, in the assay on SNB-75, with TK-10 and in the assay with U-251 was > 100 µM (inactive) throughout. Also, the GI50 in the assay on UACC-62 and in the assay on UO-31 was > 100 µM (inactive) each time.
In the case of `CCOC(=O)Cc1nn2c(=O)cc(C)nc2s1`, the GI50 is > 100 µM (inactive) in the assay with 786-0; > 100 µM (inactive) in the assay with CAKI-1; greater than 100 µM with HCT-15; > 100 µM (inactive) with LOX IMVI; > 100 µM (inactive) with MDA-MB-231; > 100 µM (inactive) with MDA-N. The GI50 with MOLT-4, with Malme-3M, with NCI-H23, in the assay on NCI-H460, in the assay with RXF 393 and in the assay with SF-268 was > 100 µM (inactive) in each case. The GI50 with SF-539 is 55.2 µM (inactive); in the assay with SK-MEL-5, > 100 µM (inactive); in the assay with SN12C it was > 100 µM (inactive); with SNB-75, > 100 µM (inactive); in the assay on TK-10, > 100 µM (inactive); with U-251 it was > 100 µM (inactive). In addition, the GI50 in the assay with UACC-62 and with UO-31 was > 100 µM (inactive) in each case.
Take `[N-]=[N+]=Nc1ccc2c(c1)Sc1ccccc1N2CCCCN1CCN(Cc2ccc(C(=O)c3ccccc3)cc2)CC1`: the GI50 in the assay with 786-0 is 5.24 µM (inactive); in the assay on CAKI-1 it was 7.13 µM (inactive); in the assay on HCT-15, 3.47 µM; with LOX IMVI, 1.76 µM (inactive); with MDA-MB-231, 3.11 µM (inactive); in the assay on MDA-N, 9.51 µM (inactive). Moreover, the GI50 with MOLT-4 is 3.6 µM (inactive); in the assay on Malme-3M it was 1.95 µM (inactive); in the assay on NCI-H23, 6.49 µM (inactive); in the assay with NCI-H460 it was 2.85 µM (inactive); with RXF 393, 1.72 µM (inactive); in the assay on SF-268, 5.6 µM (inactive). In addition, the GI50 with SF-539 is 3.35 µM (inactive); in the assay with SK-MEL-5 it was 2.13 µM (inactive); in the assay on SN12C it was > 25.3 µM (inactive); in the assay on SNB-75 it was 4.32 µM (inactive); with TK-10 it was > 39.6 µM (inactive); in the assay on U-251, 5.74 µM (inactive). Moreover, the GI50 in the assay on UACC-62 was 2.43 µM (inactive); with UO-31, 2.51 µM (inactive).
On to `COC(=O)C(=O)C(C(=O)C(=O)Nc1cc(C)ccc1C)c1nc2ccccc2nc1O` (centres undefined), for which the GI50 in the assay on 786-0 was > 100 µM (inactive); with CAKI-1, > 100 µM (inactive); in the assay with HCT-15, greater than 100 µM; in the assay on LOX IMVI, > 100 µM (inactive); in the assay with MDA-MB-231, > 100 µM (inactive); with MDA-N it was > 100 µM (inactive). The GI50 was 71.3 µM (inactive) with MOLT-4; > 100 µM (inactive) in the assay on Malme-3M; > 100 µM (inactive) with NCI-H23; > 100 µM (inactive) in the assay with NCI-H460; 77.3 µM (inactive) with RXF 393; > 100 µM (inactive) in the assay on SF-268. In addition, the GI50 in the assay with SF-539, with SK-MEL-5, with SN12C, in the assay with SNB-75, in the assay with TK-10 and with U-251 was > 100 µM (inactive) throughout. Besides, the results for the GI50 with UACC-62 and in the assay with UO-31 were 87.7 µM (inactive) and > 100 µM (inactive), respectively.
On to `COC(=O)c1cc(C)ccc1/C=C1\Cc2cc(C)c(C)cc2C1=O`, for which the GI50 in the assay on 786-0 is 55.8 µM (inactive); in the assay with CAKI-1, > 100 µM (inactive); in the assay with HCT-15, greater than 100 µM; with LOX IMVI it was > 100 µM (inactive); with MDA-MB-231 it was > 100 µM (inactive); in the assay with MDA-N, > 100 µM (inactive). Besides, the GI50 is 33.1 µM (inactive) in the assay on MOLT-4; > 100 µM (inactive) with Malme-3M; > 100 µM (inactive) with NCI-H23; > 100 µM (inactive) in the assay on NCI-H460; 50.5 µM (inactive) with RXF 393; 41.1 µM (inactive) with SF-268. The GI50 in the assay on SF-539 is > 100 µM (inactive); with SK-MEL-5, > 100 µM (inactive); in the assay with SN12C it was > 100 µM (inactive); in the assay with SNB-75 it was 17.5 µM (inactive); in the assay on TK-10 it was > 100 µM (inactive); in the assay with UACC-62 it was 27.8 µM (inactive). The GI50 in the assay on UO-31 was > 100 µM (inactive).
